Test results reported in patent publication US20230048888A1, “USE OF TRIAZOLOTRIAZINE DERIVATIVE IN TREATMENT OF DISEASES” (ZHEJIANG VIMGREEN PHARMACEUTICALS, LTD., priority 2019, published 2023).
Values after ≈ are worked out from the molar mass of the structure shown.

Experiments:
[1] = tested on: haloperidol-induced stiffness; test: Haloperidol-induced rat Parkinson's disease stiffness model (stiffness latency on metal rod); type: in vivo
Experimental: The animals required for the day were transferred from the rearing room to an operation room in advance, and were let to acclimate for at least 30 min before the test was initiated. […] After 30 minutes, the test animals were intraperitoneally injected with haloperidol or vehicle 2 without haloperidol, and put back to the original rearing cages. At 60 and 120 minutes after the injection of haloperidol or vehicle 2, the forelimbs of the rat were gently placed vertically on a horizontal metal rod with a length of 20.5 cm, a diameter of 1.2 cm, and a height of 8.5 cm above the workbench, then its hind limbs were gently placed on a test box, and timing started. When the rat moved or climbed down on the metal rod with forelimbs, the timing was stopped, and the duration for the two forelimbs of the rat to maintain the posture on the metal rod was recorded, i.e., being recorded as stiffness latency. If the rat's front paws were not put down, the observation was terminated after 600 sec, and the stiffness latency of this animal was recorded as 600 sec. When the rod climbing test was completed that day, 5 animals from each group were perfused and fixed, and whole brains were removed for preservation. Stiffness latency: the time for the two forelimbs of a rat to keep still on the metal rod. The longest stiffness latency was 600 sec. Stiffness rate %=(stiffness latency/600)*100% All measurement data were represented as mean±standard error of mean (mean±SEM), and check analysis was performed by Prism 8.0 statistical software.

[2] = Solubility in biological vehicles (SGF, FaSSIF, FeSSIF) at 37° C., HPLC; type: physicochemical; settings: for Solubility / solubility at 2 h: 2 h; for solubility at 0.5 h / solubility at 2 h: 37 °C, thermodynamic from solid
Experimental: An Agilent HPLC 1260 series instrument was used in an HPLC analysis method. The HPLC method for testing solubility and stability was as follows:
In the experiment, the solubilities of the free-base crystal form and the acetate crystal form were determined at 37° C. in biological vehicles (simulated gastric fluid (SGF), fasted state stimulated intestinal fluid (FaSSIF) and fed state stimulated intestinal fluid (FeSSIF)). 3 mg of a sample was added to a sample bottle, and 1 mL of biologically relevant vehicle was added to the same. The suspension was shaken at a speed of 500 rpm at 37° C.

[3] = Pharmacokinetics of Compounds 27, 16, 14 and 22 in SD rats; type: in vivo; settings: for AUC(0-t) / Cmax / half-life / clearance: Sprague-Dawley, rat, in vivo; for clearance: read-out: Cl—pred (converted)
From the text: WinNonlin® 6.4 was used as the calculation software for PK parameters.

human ADORA3 = target: T1, human ADORA3 (Homo sapiens, UniProt P0DMS8); test: Calcium flow test (FLIPR), ADORA3 stably transfected CHO; type: cell-based; settings: Table 9
T1 construct: host or cells: CHO
T1 sequence (P0DMS8 1-318): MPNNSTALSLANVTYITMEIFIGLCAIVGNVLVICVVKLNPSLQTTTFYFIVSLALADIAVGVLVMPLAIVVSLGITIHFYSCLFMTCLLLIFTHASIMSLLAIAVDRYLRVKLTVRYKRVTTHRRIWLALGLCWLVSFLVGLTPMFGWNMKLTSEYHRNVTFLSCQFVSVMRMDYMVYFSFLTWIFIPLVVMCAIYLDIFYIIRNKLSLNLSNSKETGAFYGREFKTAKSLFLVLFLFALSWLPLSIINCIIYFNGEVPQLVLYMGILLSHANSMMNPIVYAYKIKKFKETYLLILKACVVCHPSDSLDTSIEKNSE
Experimental: In this experiment, stably transfected cell lines over-expressing adenosine receptor coupled to human Gq were used, and the antagonistic function of Compound 22 was evaluated by testing the changes in intracellular calcium ion concentration. The binding of the A2AR agonist to A2AR could activate a downstream pathway to increase the intracellular calcium ion concentration. The antagonist would competitively occupy the binding site where the agonist binds to A2AR, thereby interrupting the intracellular signal transduction and leading to a change in the intracellular calcium ion concentration. By detecting the strength of the intracellular calcium ion signal, the antagonistic activities of the compound on human ADORA1, ADORA2A, ADORA2B and ADORA3 adenosine receptors were determined. […]
7) The FLIPR instrument software was operated; following a set program, 10 μL of experimental buffer salt solution was added to the cell plate; and fluorescence signals were read. Then, 10 μL of the reference compound of agonist at a predetermined concentration was added to the cell plate, and the fluorescence signals were read. After reading, data was exported by means of “Max-Min” and “Read 91 to Maximum allowed” in the software, the EC80 of each cell line was calculated, and an agonist with a concentration of 6×EC80 was prepared.
9) The FLIPR instrument software was operated; following a set program, 10 μL of the test compound and 10 μL of the reference compound were added at a predetermined concentration to the cell plate; and the fluorescence signals were read. Then, 10 μL of the reference compound of agonist at a concentration of 6×EC80 was added to the cell plate, and the fluorescence signal were read. For the antagonist detection of the compound, data was exported by means of “Max-Min” and “Read 1 to 90” in the software. […]

[4] = 10 mg/kg intragastric, 60 min after haloperidol
[5] = 10 mg/kg intragastric, 120 min after haloperidol
[6] = fasted state simulated intestinal fluid (FaSSIF), fassif
[7] = fed state simulated intestinal fluid (FeSSIF), fessif
[8] = simulated gastric fluid (SGF), simulated gastric fluid, SGF

Row | SMILES | Stiffness rate ([1]; 10 mg/kg intragastric, 60 min) | Stiffness latency [1, 4] | Stiffness rate ([1]; 10 mg/kg intragastric, 120 min) | Stiffness latency [1, 5] | solubility at 0.5 h [2, 6] | solubility at 2 h [2, 6] | solubility at 0.5 h [2, 7] | solubility at 2 h [2, 7] | solubility at 0.5 h [2, 8] | solubility at 2 h [2, 8] | AUC(0-t) ([3]; IV, dose 1 (mg/kg)) | Cmax ([3]; IV, dose 1 (mg/kg)) | half-life ([3]; IV, dose 1 (mg/kg)) | clearance ([3]; IV, dose 1 (mg/kg)) | IC50 (human ADORA3) | other results
1 | CC(=O)O.Nc1nc(NCCc2ccc(NC3COC3)cc2)nc2nc(-c3ccco3)nn12 [Acetate of Compound 22, 2-(furan-2-yl)-N5-(4-(oxetane-3-ylamino)phenethyl)-[1,2,4]triazolo[1,5-a][1,3,5]triazine-5,7-diamine acetate] | 0.1 ± 0.06% | 0.7 ± 0.4 s | 0.4 ± 0.2% | 2.6 ± 1.5 s | 9.3 µg/mL | 9.9 µg/mL | 33.1 µg/mL | 33.8 µg/mL | > 2890 µg/mL | > 2890 µg/mL | – | – | – | – | – | Stiffness rate ([1]; 3 mg/kg intragastric, 60 min): 1.6 ± 0.8%; Stiffness latency ([1]; 3 mg/kg intragastric, 60 min after haloperidol): 9.3 ± 4.5 s; Stiffness rate ([1]; 3 mg/kg intragastric, 120 min): 4.1 ± 1.9%; Stiffness latency ([1]; 3 mg/kg intragastric, 120 min after haloperidol): 24.8 ± 11.2 s; Stiffness rate ([1]; 30 mg/kg intragastric, 60 min): 0.1 ± 0.05%; Stiffness latency ([1]; 30 mg/kg intragastric, 60 min after haloperidol): 0.6 ± 0.3 s; Stiffness rate ([1]; 30 mg/kg intragastric, 120 min): 0.1 ± 0.07%; Stiffness latency ([1]; 30 mg/kg intragastric, 120 min after haloperidol): 0.6 ± 0.4 s; Solubility ([2]; SGF, acetate): >2887 µg/mL
2 | Nc1nc(NCCc2ccc(NC3COC3)cc2)nc2nc(-c3ccco3)nn12 [Compound 22, 2-(furan-2-yl)-N5-(4-(oxetan-3-ylamino)phenethyl)-[1,2,4]triazolo[1,5-a][1,3,5]triazine-5,7-diamine] | – | – | – | – | 3.7 µg/mL (≈ 9.43 µM) | 4.2 µg/mL (≈ 10.7 µM) | 7 µg/mL (≈ 17.8 µM) | 8.8 µg/mL (≈ 22.4 µM) | 622 µg/mL (≈ 1590 µM) | 712 µg/mL (≈ 1810 µM) | 1770 ng·h/mL | 2350 ng/mL | 1 h | 9.5 mL/min/kg | 0.931 ± 0.0541 µM | Cl—F—pred ([3]; PO, dose 3 (mg/kg)): 25.3 mL/min/kg; F ([3]; PO, dose 3 (mg/kg)): 39.49%; AUC(0-t) ([3]; PO, dose 3 (mg/kg)): 2100 ng·h/mL; Cmax ([3]; PO, dose 3 (mg/kg)): 580 ng/mL; half-life ([3]; PO, dose 3 (mg/kg)): 3.3 h; Solubility ([2]; SGF, listed as Free base): 712.1 µg/mL (≈ 1810 µM)
3 | COCCNc1ccc(CCNc2nc(N)n3nc(-c4ccco4)nc3n2)cc1 [Compound 27, 2-(furan-2-yl)-N5-(4-((2-methoxyethyl)amino)phenethyl)-[1,2,4]triazolo[1,5-a][1,3,5]triazine-5,7-diamine] | – | – | – | – | – | – | – | – | – | – | 477 ng·h/mL | 1340 ng/mL | 0.51 h | 36 mL/min/kg | – | Cl—F—pred ([3]; PO, dose 5 (mg/kg)): 147 mL/min/kg; F ([3]; PO, dose 5 (mg/kg)): 33.85%; AUC(0-t) ([3]; PO, dose 5 (mg/kg)): 484 ng·h/mL; Cmax ([3]; PO, dose 5 (mg/kg)): 318 ng/mL; half-life ([3]; PO, dose 5 (mg/kg)): 4.36 h
4 | Cn1nnc(-c2ccc(CCNc3nc(N)n4nc(-c5ccco5)nc4n3)cc2)n1 [Compound 40, N5-(4-(2-methyl-2H-tetrazol-5-yl)phenethyl)-2-(furan-2-yl)-[1,2,4]triazolo[1,5-a][1,3,5]triazine-5,7-diamine] | – | – | – | – | – | – | – | – | – | – | – | – | – | – | 6.3 ± 2.89 µM | –
5 | CCn1c(=O)c2c(nc(/C=C/c3ccc(OC)c(OC)c3)n2C)n(CC)c1=O [Istradefylline, reference compound] | 0.2 ± 0.1% | 1.4 ± 0.8 s | 0.07 ± 0.05% | 0.4 ± 0.3 s | – | – | – | – | – | – | – | – | – | – | – | –
